According to the supplement of paper PMC12592484:

Key:
Test in all cases: drug sensitivity score (DSS2, normalised partial AUC of dose-response, 72 h CellTiter-Glo viability) (DSS (dimensionless)); higher = more sensitive (stronger growth inhibition / cytotoxicity); extreme values may be limits of the assay
CAF#2 = system: CAF#2 (primary prostate cancer-associated fibroblasts of iCAF-like type)
In short: (§1)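 Five doses spanning a 10,000-fold range were pre-dispensed into 384-well plates, into which low-passage primary prostate cancer-associated fibroblasts, PF179T, WPMY-1, LNCaP and 22Rv1 cells were seeded. After 72 h, CellTiter-Glo 2.0 luminescence measured viability, scaled to vehicle and positive-control wells. Higher values of the drug sensitivity score, a BREEZE-computed partial area under the fitted logistic dose–response curve divided by the log of the upper asymptote, mean greater sensitivity.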

CAF#4 = system: CAF#4 (primary prostate cancer-associated fibroblasts of iCAF-like type)
In short: as §1

CAF#1 = system: CAF#1 (primary prostate cancer-associated fibroblasts of myCAF-like type)
In short: as §1

WPMY-1 = system: WPMY-1
In short: as §1

CAF#7 = system: CAF#7 (primary prostate cancer-associated fibroblasts of myCAF-like type)
In short: as §1

LNCAP = system: LNCAP
In short: as §1

PF179T = system: PF179T
In short: as §1

CAF#3 = system: CAF#3 (primary prostate cancer-associated fibroblasts of myCAF-like type)
In short: as §1

22Rv1 = system: 22Rv1
In short: as §1

CAF#5 = system: CAF#5 (primary prostate cancer-associated fibroblasts of myCAF-like type)
In short: as §1

CAF#6 = system: CAF#6 (primary prostate cancer-associated fibroblasts of iCAF-like type)
In short: as §1

SMILES | drug sensitivity score (CAF#2) | drug sensitivity score (CAF#4) | drug sensitivity score (CAF#1) | drug sensitivity score (WPMY-1) | drug sensitivity score (CAF#7) | drug sensitivity score (LNCAP) | drug sensitivity score (PF179T) | drug sensitivity score (CAF#3) | drug sensitivity score (22Rv1) | drug sensitivity score (CAF#5) | drug sensitivity score (CAF#6)
CC[C@@H]1C(=O)OC[C@@H]1Cc1cncn1C [Pilocarpine] (tested concentration range 4-40000 nM) | 0 | 0 | 0.8 | 0 | 0 | 0 | 0 | 0 | 0 | 1.5 | 0
C=C1C[C@@H]2CC[C@@]34C[C@H]5O[C@H]6[C@@H](O3)[C@H]3O[C@H](CC[C@@H]3O[C@H]6[C@H]5O4)CC(=O)C[C@@H]3[C@@H](OC)[C@@H](C[C@H](O)CN)O[C@H]3C[C@H]3O[C@@H](CC[C@@H]1O2)C[C@@H](C)C3=C [Eribulin] (tested concentration range 0.1-1000 nM) | 18.3 | 9.6 | 12.3 | 28.9 | 22.1 | 36.5 | 19.4 | 11.8 | 24 | 13.7 | 15.3
CCC(C)n1ncn(-c2ccc(N3CCN(c4ccc(OCC5COC(Cn6cncn6)(c6ccc(Cl)cc6Cl)O5)cc4)CC3)cc2)c1=O (centres undefined) [Itraconazole] (tested concentration range 0.5-5000 nM) | 1.2 | 0.2 | 0 | 4.2 | 1.2 | 5.3 | 1 | 2.7 | 2.7 | 0 | 1.6
Cc1ccc(C(=O)Nc2ccc(Oc3cc4cnn(C)c4cc3-c3cn[nH]c3)c(F)c2)c(=O)n1-c1ccc(F)cc1 [Merestinib] (tested concentration range 0.1-1000 nM) | 5.6 | 4.4 | 3 | 4.3 | 3.9 | 0 | 5.3 | 3 | 0 | 3.8 | 3.5
CC(C)[C@@H](CS(=O)(=O)C(C)C)N1C(=O)[C@@](C)(CC(=O)O)C[C@H](c2cccc(Cl)c2)[C@H]1c1ccc(Cl)cc1 [KRT-232] (tested concentration range 1-10000 nM) | 14.7 | 8.6 | 13.7 | 0 | 12.7 | 21.4 | 14.2 | 6.3 | 10 | 10.9 | 11.9
O=C(Nc1cccc(NC(=O)c2cccc(O)c2O)c1)c1cccc(O)c1O [MST-312] (tested concentration range 1-10000 nM) | 15.3 | 12.9 | 12.8 | 10.2 | 11.6 | 15.6 | 10.7 | 8.9 | 10.3 | 13.5 | 10.5
O=C(c1cc(Cc2n[nH]c(=O)c3ccccc23)ccc1F)N1CCN(C(=O)C2CC2)CC1 [Olaparib] (tested concentration range 1-10000 nM) | 4.7 | 6.8 | 3.8 | 4.5 | 4.1 | 4.4 | 6.4 | 3 | 5.8 | 4.5 | 3.5
CN1CCN(C2CCC(n3cc(-c4ccc(Oc5ccccc5)cc4)c4c(N)ncnc43)CC2)CC1 (centres undefined) (tested concentration range 1-10000 nM) | 14.6 | 13.6 | 12.2 | 10.1 | 16.6 | 8.3 | 9.3 | 11.2 | 9.1 | 11.5 | 11.7
COc1cccc2c1C(=O)c1c(O)c3c(c(O)c1C2=O)C[C@@](O)(C(C)=O)C[C@@H]3O[C@H]1C[C@H](N)[C@H](O)[C@H](C)O1 [Daunorubicin] (tested concentration range 0.1-1000 nM) | 9.4 | 4.2 | 7.3 | 10.7 | 8.4 | 17.5 | 8.6 | 6.4 | 12.9 | 6.6 | 7.9
Cn1cc(C2=C(c3cn(C4CCN(Cc5ccccn5)CC4)c4ccccc34)C(=O)NC2=O)c2ccccc21 [Enzastaurin] (tested concentration range 1-10000 nM) | 2.1 | 1.1 | 0 | 5.2 | 0 | 4.7 | 2.3 | 0 | 4.2 | 0 | 1.1
CN(C)C/C=C/C(=O)Nc1cc2c(Nc3ccc(F)c(Cl)c3)ncnc2cc1O[C@H]1CCOC1 [Afatinib] (tested concentration range 0.1-1000 nM) | 0.3 | 0 | 0.3 | 0 | 0 | 2.7 | 0 | 0 | 3.4 | 0 | 0
COc1ccccc1S(=O)(=O)Nc1ccc2c(c1)CN(C)C(=O)N2 [PFI-1] (tested concentration range 3-30000 nM) | 2.1 | 1.3 | 3.1 | 4.2 | 3.4 | 6.4 | 2.6 | 4.3 | 6.6 | 1 | 1.8
COc1cc(Nc2c(C#N)cnc3cc(OCCCN4CCN(C)CC4)c(OC)cc23)c(Cl)cc1Cl [Bosutinib] (tested concentration range 1-10000 nM) | 8.5 | 5.8 | 7.4 | 9.2 | 4.1 | 10.1 | 4.8 | 6.6 | 7.7 | 6.2 | 5.1
CC(C)C[C@H](NC(=O)[C@H](Cc1ccccc1)NC(=O)c1cnccn1)B(O)O [Bortezomib] (tested concentration range 0.1-1000 nM) | 30.1 | 20 | 23.9 | 30.6 | 24.3 | 28.8 | 20.9 | 26.9 | 24.9 | 28.1 | 23.7
Cc1nc(NC(=O)N2CCC[C@H]2C(N)=O)sc1-c1ccnc(C(C)(C)C(F)(F)F)c1 [Alpelisib] (tested concentration range 0.2-2500 nM) | 2.5 | 2.6 | 2.9 | 1.3 | 3.4 | 1.1 | 0 | 2.1 | 4.8 | 3.1 | 3
CC(C)(O)CNc1nc(Nc2ccnc(C(F)(F)F)c2)nc(-c2cccc(C(F)(F)F)n2)n1 [Enasidenib] (tested concentration range 1-10000 nM) | 0 | 0 | 0 | 0 | 0 | 1.2 | 0 | 0.4 | 1.7 | 0 | 0
Nc1ccccc1NC(=O)c1ccc(CNC(=O)OCc2cccnc2)cc1 [Entinostat] (tested concentration range 1-10000 nM) | 8.5 | 4.8 | 5 | 8.5 | 3.5 | 11.6 | 8.1 | 2.4 | 10.2 | 7.4 | 2.2
Cc1cc(-c2nc(-c3ccc(OC(F)(F)F)cc3)no2)nn1Cc1ccnc(N2CCN(C3CC3)CC2)c1 [BAY 87-2243] (tested concentration range 0.1-1000 nM) | 1.6 | 0 | 0 | 23.2 | 0 | 24.8 | 26.4 | 0.5 | 19.8 | 0 | 0
COc1cccc2c1C(=O)c1c(O)c3c(c(O)c1C2=O)C[C@@](O)(C(=O)CO)C[C@@H]3O[C@H]1C[C@H](N)[C@H](O)[C@H](C)O1 [Doxorubicin] (tested concentration range 0.1-1000 nM) | 7.8 | 2.6 | 6.5 | 9.8 | 0 | 0 | 7.5 | 0 | 12.2 | 6.7 | 0
Nc1cccc2c1CN(C1CCC(=O)NC1=O)C2=O (centres undefined) [Lenalidomide] (tested concentration range 10-100000 nM) | 2.2 | 3 | 1.4 | 0 | 0 | 0 | 0 | 0 | 0 | 1.1 | 0
CC(C)C(=O)Nc1ccc([N+](=O)[O-])c(C(F)(F)F)c1 [Flutamide] (tested concentration range 1-10000 nM) | 2.8 | 4.8 | 0 | 0 | 0 | 1.1 | 0 | 0 | 0.6 | 0.5 | 0
C[C@H]1O[C@@H](O[C@H]2[C@@H](O)C[C@H](O[C@H]3[C@@H](O)C[C@H](O[C@H]4CC[C@@]5(C)[C@H](CC[C@@H]6[C@@H]5C[C@@H](O)[C@]5(C)[C@@H](C7=CC(=O)OC7)CC[C@]65O)C4)O[C@@H]3C)O[C@@H]2C)C[C@H](O)[C@@H]1O [Digoxin] (tested concentration range 0.1-1000 nM) | 13.8 | 19.4 | 10.2 | 14.7 | 11.2 | 12 | 13.6 | 8.7 | 14.4 | 13.4 | 10.8
CS(=O)(=O)c1ccc(C(=O)Nc2ccc(Cl)c(-c3ccccn3)c2)c(Cl)c1 [Vismodegib] (tested concentration range 1-10000 nM) | 0 | 0 | 0 | 0 | 0 | 0.2 | 0 | 1.5 | 0 | 0 | 0
CN(C)C(=O)c1cc2cnc(Nc3ccc(N4CCNCC4)cn3)nc2n1C1CCCC1 [Ribociclib] (tested concentration range 1-10000 nM) | 4.6 | 2.7 | 0 | 0 | 3 | 7.7 | 3.7 | 2.9 | 5 | 2.5 | 2.4
